Measured values from a melting point compilation (Tetko et al.; mined from patent text by program, amines drawn as free bases though some values may be those of a salt).

Work on `Cc1cc(-c2ccc3nnn(Cc4ccc5ncccc5c4)c3n2)ccc1C(N)=O` yielded a melting point of 235 to 237 °C. In the case of `CCCCOc1ccc(C(=O)Nc2ccc3cc(CN4CCN(C)CC4)cnc3c2C)c(F)c1`, the melting point is reported as 155 °C. For `Cc1ccncc1CN1CCC(=C2c3ccc(Cl)cc3CCc3cccnc32)CC1`, the melting point was 95.5 to 101 °C. `CCOC(=O)c1c(-c2ccccc2C)c2cc(C)c(Cl)cc2[nH]c1=O` showed a melting point of 290 to 291 °C. With `Cl/C(=C\c1ccc(Br)cc1)c1ccc(Cl)cc1` the melting point was 108 °C. `CCn1c(=O)c2c(nc(/C=C/c3ccc(OC)c(C)c3OC)n2C)n(CC)c1=O` gave a melting point of 196 to 197 °C. In the case of `Cc1cc(F)ccc1-c1nc(NC2CCOCC2)nc2c1ccc(=O)n2-c1ccccc1F`, the melting point is reported as 211 to 212 °C. Compound `COc1ccc(NC(=O)C(C)(C)c2ccc(S(=O)(=O)/C=C/C#N)cc2)cc1` has a melting point of 123 to 126 °C. With `N#Cc1cc(-c2ccccc2)c(C(=O)O)cn1` the melting point was 270 to 272 °C. Work on `Cc1nc(N2CCN(CCC3CC3)C2=O)sc1C(=O)NCc1ccccc1` yielded a melting point of 137 to 138 °C. With `CCN1C=C(C(=O)O)C(=O)CC1c1ccccc1` (configuration not stated) the melting point was 148 to 150 °C. `Cc1c(C(=O)Nc2ccc(OCC(C)(C)C)c(C#N)c2)cnn1C` showed a melting point of 187 to 188 °C. Work on `CCC(C)(C)c1ccc(OCCCNC(=O)c2cc(OS(=O)(=O)CCCOc3ccc([N+](=O)[O-])cc3)c3ccccc3c2O)c(C(C)(C)CC)c1` yielded a melting point of 140 to 141 °C. Work on `Cn1c(=O)c(C#N)c(N2CCN(C(=O)c3ccco3)CC2)c2cc(F)ccc21` yielded a melting point of 263 °C. In the case of `O=C1Nc2ccccc2C2=NC(CBr)CN12` (configuration not stated), the melting point is reported as 213 to 214 °C. With `O=C1N(c2ccccc2)CCN1C1CCNCC1` the melting point was 123 to 124 °C. For `CCC(C)(C)N1CCN(C(=O)Nc2ccc3[nH]c(C(=O)N4CCN(c5ncccc5NC(C)C)CC4)cc3c2)CC1`, the melting point was 240 to 242 °C. In the case of `CCOC(=O)COc1ccc(C(=O)c2ccoc2)c2ccccc12`, the melting point is reported as 103 °C. Work on `O=C(c1ccccc1)c1cc(Cl)cc2c1OCC2C(=O)O` (configuration not stated) yielded a melting point of 155 to 157 °C. For `CC(C)c1cccc(C(C)C)c1-n1nn[nH]c1=O`, the melting point was 177 to 178 °C. With `N#Cc1cccc2c1CN(C1CCC(=O)NC1=O)C2=O` (configuration not stated) the melting point was 312 to 314 °C. `C#CC1=Cc2cc(Cl)ccc2Sc2ccc(SC)cc21` showed a melting point of 100 to 103 °C. Work on `Cc1ccc(C(=O)NC(C)(C)C)c(Nc2ccc3cn[nH]c3c2)n1` yielded a melting point of 107 to 109 °C. In the case of `CSc1cc(C)nc(SC)c1NC(=O)CCCCCCCSc1nc2ccccc2s1`, the melting point is reported as 104 to 108 °C. For `O=C(Cn1nc(-c2ccccc2O)nc1-c1ccccc1O)N1CCOCC1`, the melting point was 149 to 151 °C. With `Nc1[nH]nc(-c2ccncc2)c1-c1ccc(F)cc1` the melting point was 116 to 118 °C. With `O=c1[nH]c2cc(C(F)(F)F)cc(Br)c2[nH]c1=NO` the melting point was 221 to 223 °C. Compound `O=C(NCCCCCn1cncn1)c1ccc(Br)cc1` has a melting point of 93 to 95 °C. In the case of `COc1ccc(S(=O)(=O)c2ccccc2)cc1S(=O)(=O)NCCc1cccnc1`, the melting point is reported as 181 to 183 °C. With `CN(CCCCCCNC(=NCCCOc1cccc(CN2CCCCC2)c1)NC#N)CCN(Cc1ccc(F)cc1)c1ccccn1` the melting point was 58 °C. `CCOC(=O)N1CCC(=C2c3ccc(F)cc3CCc3cccnc32)CC1` showed a melting point of 116 to 118 °C. `CC(O)=C(C(=O)OC(c1ccccc1)c1ccccc1)N1C(=O)C(NC(=O)C(NC(=O)OC(C)(C)C)c2ccccc2)C1SS(=O)(=O)c1ccc(C)cc1` (configuration not stated) gave a melting point of 182 to 184 °C. Compound `CS(=O)(=O)c1ccc(-n2nc(C(F)(F)F)cc2-c2nc3cc(F)ccc3s2)cc1` has a melting point of 204 to 205 °C. `O=C(O)CCCc1cc2nc(Cl)ccc2n1S(=O)(=O)c1ccc(Cl)cc1` gave a melting point of 174 °C. Work on `CC(C)n1nc(-c2sc(NC3CCCCC3)nc2-c2ccccc2)ccc1=O` yielded a melting point of 149 to 151 °C. Compound `COc1ccc(C(=O)N2CCCCc3cc(C4=NNC(=O)SC4C)ccc32)cc1OC` (configuration not stated) has a melting point of 207 °C. `O=c1n(CCC#Cc2ccccn2)nc2ccccn12` showed a melting point of 95.5 to 96 °C. With `Cc1cc2c(cnn2-c2c(Cl)cc(C(F)(F)F)cc2Cl)nc1C` the melting point was 135 to 136 °C. With `CC(C)(C)c1cc(C(=O)Nc2nc(CC(=O)NCCN3CCN(c4ncccn4)CC3)cs2)cc(C(C)(C)C)c1O` the melting point was 175 to 179 °C. For `O=C(O)c1ccc2c(c1)S(=O)c1ccc([N+](=O)[O-])cc1C=C2` (configuration not stated), the melting point was 278 to 281 °C. `Cc1[nH]nc(C(C)C)c1Oc1cc(C#N)cc(C#N)c1` showed a melting point of 142 to 144 °C. Compound `CCc1c(CCNC(=O)CCC(C)CC(=O)NCCc2ccc(OC)c(OC)c2CC)ccc(OC)c1OC` (configuration not stated) has a melting point of 152 to 153 °C. Work on `C/C(=C(\C#N)C(N)=S)N1CCCN(c2ccccc2C)CC1` yielded a melting point of 99 to 100 °C. Compound `CCCCCc1cc(O)c(C2=C(CO)CCC(C)C2)c(O)c1` (configuration not stated) has a melting point of 109 to 111 °C. `CCCCCCCCCCCCCCCCCCOc1coc(CO)cc1=O` showed a melting point of 71 to 73 °C. `COc1ccc(-n2nc(-c3ccc(C)cc3)c(C(N)=O)c2N)cc1` gave a melting point of 174 to 175 °C. Work on `C[C@@H]1C[C@](C)(O)[C@H](C)N1c1ccc(C#N)c(F)c1` yielded a melting point of 125 to 128 °C. `CCOC(=O)CC(NC(=O)C1=C(C(=O)Nc2ccc(Cl)cc2F)CCCC1)C(=O)OCC` (configuration not stated) gave a melting point of 109 to 110 °C. With `Oc1ccc2c(c1)CCCC(c1ccccc1)=C2c1ccc(OCCCCCSCCCCF)cc1` the melting point was 163 °C. Work on `Nc1ccc(C(=O)N2Cc3ccccc3Cc3cc(Cl)ccc32)cc1` yielded a melting point of 211 to 214 °C. With `Cc1oc(-c2ccccc2)nc1CCOc1ccc(Cn2cc(CCC(=O)O)c(-c3ccccc3)n2)cc1` the melting point was 142 to 143 °C. With `C=CCN(CCC)S(=O)(=O)NC(=O)c1cc(N)c(F)cc1Cl` the melting point was 104 to 106 °C. `COC(=O)C(=O)CC(=O)c1cc(F)c(OC)c(F)c1` showed a melting point of 185 to 190 °C. Work on `CC(C)c1ccc2c(c1)OC1(O)c3ccccc3C(=O)C21N` (configuration not stated) yielded a melting point of 151 to 152 °C. `COC(=O)c1cccn1Cc1ccccc1N` gave a melting point of 95 to 97 °C. `Nc1c(Br)cc(OC(F)F)cc1[N+](=O)[O-]` gave a melting point of 60.5 to 61.5 °C. For `CN(C)C(=O)Oc1ccc(CCl)cc1`, the melting point was 68 °C. `C[C@@H]1N=C(c2ccccc2)c2cc(NC(=O)CCCCCCC(=O)O)ccc2N(C)C1=O` gave a melting point of 87 to 88 °C. With `O=C(Nc1ccc2cc(CN3CCCCC3)ccc2c1)c1ccc(-c2ccc(Cl)cc2)cc1` the melting point was 220 to 222 °C. `CC(C)c1ccc(C(=O)[C@@H]2C[C@H]2c2ccccc2)c(C(C)C)c1OS(N)(=O)=O` (relative stereo) showed a melting point of 166 to 168 °C. In the case of `Cc1cccc(-c2nc(CI)c(C)o2)c1`, the melting point is reported as 32 °C. In the case of `CN(C)CCc1c(-c2ccc3ccccc3c2)[nH]c2ccccc12`, the melting point is reported as 185 to 186 °C. For `COc1c(OCc2ccccc2)ccc(C(=O)O)c1N`, the melting point was 167 to 168 °C. Work on `COC(=O)C1=CC(C(=O)c2cc(C)ccc2O)=CN2CCc3c([nH]c4ccccc34)C12C(=O)OC` (configuration not stated) yielded a melting point of 197 °C. Work on `CCc1nc2c(cnn2CC)c(NC2CCOCC2)c1CNC(=O)c1cccc(C(=O)NCc2cc(Cl)cc(-c3cccc(CN4CCCNCC4)c3)c2)c1` yielded a melting point of 121 to 124 °C. With `Cc1cc(NC(=O)C=Cc2ccccc2)c(NC(=O)C=Cc2ccccc2)cc1C` the melting point was 244 °C. For `COCc1cn(Cc2ccccc2)c(=O)[nH]c1=O`, the melting point was 134 to 136 °C. Compound `CCCCCc1c(-c2ccc3c(Br)c(O)ccc3c2)oc2ccccc12` has a melting point of 75 to 77 °C. `Cc1ccc(Nn2c(-c3ccccc3)c(C)[nH]c2=S)cc1Cl` gave a melting point of 190 °C. In the case of `COc1ccc2ncc(C#N)c(Nc3cc(O)c(Cl)cc3F)c2c1`, the melting point is reported as 228 to 230 °C. `CN(CCCc1ccccc1)[C@H]1CC[C@H](c2ccc3[nH]c(=O)oc3c2)CC1` gave a melting point of 58 to 62 °C. Compound `CN1CCN(c2cccc3c2CC(C(=O)Nc2ccc(N4CCOCC4)cc2)C3)CC1` (configuration not stated) has a melting point of 248 to 249 °C. Compound `CC(C)(C)N(O)C(=O)C1CCC(C2CCCCC2)CC1` (configuration not stated) has a melting point of 119 to 120 °C. `CCOC(=O)C(F)(F)C(I)c1ccc(OC)cc1` (configuration not stated) showed a melting point of 44 to 45 °C. Compound `COc1cccc(C2CCCN2S(=O)(=O)c2ccc(Cl)cc2)c1` (racemic) has a melting point of 95 °C. With `Cc1nc(-n2cccc(OCc3ccccc3)c2=O)sc1C(=O)NCc1ccccc1` the melting point was 198 to 201 °C. Work on `COc1cc2ccccc2c(C2NCCc3ccccc32)c1O` (configuration not stated) yielded a melting point of 154 to 156 °C. In the case of `O=C(O)C(CSc1nccs1)CS(=O)(=O)c1ccc(-c2ccc(Cl)cc2)cc1` (configuration not stated), the melting point is reported as 152 to 154 °C. Work on `CN1C(=O)C2(COc3cc4c(cc32)OCCO4)c2c(NC(=O)C(C)(C)C)cccc21` (configuration not stated) yielded a melting point of 182 to 184 °C. Work on `CC(=O)OCC1C=CC(n2cc(F)c(N)nc2=O)O1` (configuration not stated) yielded a melting point of 182 to 184 °C. `Fc1ccccc1COC1COC(c2ccco2)OC1` (configuration not stated) gave a melting point of 50.5 to 52 °C. In the case of `COc1ccnc(N2CCN(CC3(CNC(C)=O)C=CC=CC3)CC2)n1` (configuration not stated), the melting point is reported as 144 to 145 °C. `Clc1ccccc1C1=NN=C(c2ccccc2Cl)C(c2ccccc2)C1` (configuration not stated) showed a melting point of 151 to 153 °C. `CCc1cc(C)c(Br)c(CC)c1-c1c(O)c(C)nn(C)c1=O` gave a melting point of 235 to 236 °C. `CC1(c2ccccc2)OC(=S)N(Nc2ccccc2)C1=O` (configuration not stated) gave a melting point of 81 to 85 °C. `O=C(O)COc1ccc(C2=CC(=O)CCC2C2CCCC2)c(Cl)c1Cl` (configuration not stated) showed a melting point of 206 to 207 °C. Work on `COC(=O)c1ccc(-c2ccc(-c3ccccc3)c(-c3ccc4c(c3)C(C)(C)CCC4(C)C)c2)cc1O` yielded a melting point of 134 to 136 °C. In the case of `CCC(C)(N=NC(C)(CC)NC(=O)NNC(C)(C)C)NC(=O)NNC(C)(C)C` (configuration not stated), the melting point is reported as 155 to 160 °C. For `CCCCOC(=O)COc1cc(F)c(-c2nn(C)c(C(F)(F)F)c2Cl)cc1[N+](=O)[O-]`, the melting point was 65 °C. With `COC(=O)c1cc(NC(=O)Nc2ccccc2)ccn1` the melting point was 206 to 208 °C. In the case of `Cc1c(OCc2ccccn2)nn2c(-c3ccccc3)nnc2c1C`, the melting point is reported as 185 °C. Work on `COc1cc2c(cc1OCc1ccccc1)C(Sc1ccccc1)(C(N)=CC#N)C2` (configuration not stated) yielded a melting point of 122 to 125 °C. Compound `O=C(O)COc1ccc(SCc2ccc(-c3ccc(C(F)(F)F)cc3)cc2)c2c1CCCO2` has a melting point of 122 to 124 °C. `CC(C)(C)OC(=O)C(=[N+]=[N-])C(=O)CCl` gave a melting point of 40 to 41 °C. Work on `Cc1cc(C)nc(N(CCN(C(C)C)C(C)C)C(N)=O)n1` yielded a melting point of 134 to 136 °C. With `CNC(=O)c1ccc(C2C(C(=O)c3ccc(C)cc3)=C(O)C(=O)N2c2ncc(S(=O)(=O)c3ccc([N+](=O)[O-])cc3)s2)cc1` (configuration not stated) the melting point was 195 to 197 °C. `O=C(Nc1ccc(Cl)c(C(F)(F)F)c1)c1ccccc1` showed a melting point of 130 to 131 °C.
